Experimental data: ChEMBL document CHEMBL1201862, “PubChem BioAssay data set” (2004)
One block for each compound: values may come before it. The source made the active and inactive calls.

Legend:
[1] = potency of ADAM10 substrate cleavage blockers – biochemical, QFRET, dose response (AID 743254);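 further: ADAM10 enzyme with the DM2 quenched FRET peptide as substrate; EDANS fluorescence gain as the protease cuts the substrate; inhibitor potency against ADAM10 proteolytic activity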
[2] = blockers of HIV-1 ZM109 envelope-driven cell-cell fusion – HeLa effector, CEM target cells, luciferase, cherry-pick, dose response (AID 652058); assay type: functional, cell-based;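 further: luciferase signal from HIV-1 Env mediated cell-cell fusion of effector and target cells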
[3] = HIV-1 AD8 envelope cell-cell fusion blockers – cherry-pick, dose response (AID 652062); assay type: functional, cell-based;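 further: luciferase signal from cell-cell fusion driven by HIV-1 clade B AD8 Env; potency is for inhibitors of fusion seen as a drop in luminescence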
[4] = off-target signal loss in HeLa-CEM21 co-culture – HeLa F-luc CTL cells, cherry-picked, counter-screen for HIV-1 Env fusion inhibitor project, dose response (AID 652040); assay type: functional, cell-based;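 further: potency for signal decrease marking cytotoxic or nonspecific inhibition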
[5] = blockers of HIV-1 envelope-mediated cell-cell fusion – cherry-pick, dose response (AID 652057); assay type: functional, cell-based
[6] = molecular target: T1, Low molecular weight phosphotyrosine protein phosphatase (Homo sapiens, UniProt P24666); assay type: functional; details: read-out: IC50_Mean
T1 sequence (P24666 whole entry): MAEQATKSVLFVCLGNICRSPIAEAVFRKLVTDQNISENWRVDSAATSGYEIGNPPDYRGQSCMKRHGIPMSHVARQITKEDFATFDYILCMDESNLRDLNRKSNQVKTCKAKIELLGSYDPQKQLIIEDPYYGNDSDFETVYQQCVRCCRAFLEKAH

[7] = molecular target: T2, Calpain-2 catalytic subunit (Sus scrofa, UniProt P43367); experiment: m-calpain protease blockers, concentration series – biochemical, fluorogenic peptide substrate, dose response (AID 1420); assay type: functional
T2 sequence (P43367 whole entry): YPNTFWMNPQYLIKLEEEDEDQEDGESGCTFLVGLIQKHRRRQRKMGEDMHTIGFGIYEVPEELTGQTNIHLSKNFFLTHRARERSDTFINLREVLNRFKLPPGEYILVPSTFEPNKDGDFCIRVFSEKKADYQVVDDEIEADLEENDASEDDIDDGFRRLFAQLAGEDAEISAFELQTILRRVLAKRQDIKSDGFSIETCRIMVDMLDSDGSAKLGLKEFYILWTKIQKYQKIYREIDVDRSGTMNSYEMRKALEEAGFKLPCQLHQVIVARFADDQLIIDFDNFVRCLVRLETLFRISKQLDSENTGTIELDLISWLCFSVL

[8] = molecular target: T1, Low molecular weight phosphotyrosine protein phosphatase; assay type: functional; details: read-out: IC50_Mean; remark: listed apart in the source
[9] = molecular target: T3, DNA repair and recombination protein RAD54-like (Homo sapiens, UniProt Q92698); experiment: RAD54 Holliday junction migration blockers – biochemical, fluorescence, cherry-picked samples, dose series, confirmation (AID 651657); assay type: functional
T3 sequence (Q92698 whole entry): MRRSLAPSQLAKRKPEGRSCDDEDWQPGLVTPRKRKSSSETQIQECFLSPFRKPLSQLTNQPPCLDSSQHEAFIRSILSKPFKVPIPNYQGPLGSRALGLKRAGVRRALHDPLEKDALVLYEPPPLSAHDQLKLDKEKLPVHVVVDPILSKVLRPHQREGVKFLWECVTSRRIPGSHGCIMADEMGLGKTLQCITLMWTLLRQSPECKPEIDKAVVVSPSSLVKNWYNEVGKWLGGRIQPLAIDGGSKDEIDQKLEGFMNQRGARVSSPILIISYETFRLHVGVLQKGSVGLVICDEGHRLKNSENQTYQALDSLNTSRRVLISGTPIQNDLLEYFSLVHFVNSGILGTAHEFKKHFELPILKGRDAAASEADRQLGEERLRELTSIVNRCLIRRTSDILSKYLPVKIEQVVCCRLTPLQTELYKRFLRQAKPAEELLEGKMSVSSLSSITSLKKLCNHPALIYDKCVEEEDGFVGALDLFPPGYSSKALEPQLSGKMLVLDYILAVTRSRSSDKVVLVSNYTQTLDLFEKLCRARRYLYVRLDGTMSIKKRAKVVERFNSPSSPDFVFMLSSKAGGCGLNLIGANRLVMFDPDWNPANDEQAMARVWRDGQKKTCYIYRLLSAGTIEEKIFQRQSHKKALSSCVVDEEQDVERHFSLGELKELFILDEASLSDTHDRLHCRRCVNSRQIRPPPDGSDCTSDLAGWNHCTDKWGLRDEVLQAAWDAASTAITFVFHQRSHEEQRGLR

[10] = blockade of melanocortin 4 receptor signaling – cell-based, plate reader, cherry pick, counter-screen for LGR2 antagonist project, dose response (AID 743444); assay type: functional;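 further: transfected HEK 293 cells stimulated with alpha-MSH peptide; potency of inhibitors of the alpha-MSH evoked signal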
[11] = A549 cell cytotoxicity, dose response, cytotoxicity control, plate reader, cherry-pick, antagonist series (AID 743412); assay type: functional, cell-based
Protein skinhead-1 = molecular target: T4, Protein skinhead-1 (Caenorhabditis elegans, UniProt P34707); assay type: functional
T4 sequence (P34707 whole entry): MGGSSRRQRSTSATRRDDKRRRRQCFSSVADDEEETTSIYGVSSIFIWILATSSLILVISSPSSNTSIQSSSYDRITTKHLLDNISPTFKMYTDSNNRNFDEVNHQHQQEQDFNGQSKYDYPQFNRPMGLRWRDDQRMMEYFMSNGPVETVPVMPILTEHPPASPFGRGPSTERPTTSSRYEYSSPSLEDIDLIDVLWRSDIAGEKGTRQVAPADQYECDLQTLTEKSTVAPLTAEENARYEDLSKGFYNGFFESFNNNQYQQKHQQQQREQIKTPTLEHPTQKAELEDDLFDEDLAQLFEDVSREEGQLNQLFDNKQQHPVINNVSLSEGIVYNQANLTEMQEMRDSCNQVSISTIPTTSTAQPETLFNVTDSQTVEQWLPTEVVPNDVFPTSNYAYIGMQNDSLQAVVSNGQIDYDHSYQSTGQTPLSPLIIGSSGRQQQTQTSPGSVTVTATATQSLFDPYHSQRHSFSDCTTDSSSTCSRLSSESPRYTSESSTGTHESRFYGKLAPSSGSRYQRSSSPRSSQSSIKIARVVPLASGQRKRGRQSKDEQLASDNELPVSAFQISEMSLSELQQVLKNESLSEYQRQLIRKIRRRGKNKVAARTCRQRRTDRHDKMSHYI

[12] = viability loss in HEK293 cells – cell-based, plate reader, cherry-picked samples, cytotoxicity control, dose response (AID 743446); assay type: functional
[13] = blockers of bursicon-stimulated LGR2 cAMP reporter – cell-based, HEK293, CRE-luciferase reporter, cherry pick, set 2, dose response (AID 743343); assay type: functional;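 further: transfected cells were stimulated with diluted bursicon conditioned medium after compound addition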
[14] = molecular target: Disintegrin and metalloproteinase domain-containing protein 17 (Homo sapiens, UniProt P78536); experiment: inhibition of ADAM17 substrate cleavage – biochemical, quenched FRET substrate, counter-screen for ADAM10 exosite inhibitor project, dose response (AID 743253)
[15] = molecular target: T5, Mannose-6-phosphate isomerase (Homo sapiens, UniProt P34949); experiment: MPI inhibition at elevated mannose 6-phosphate – biochemical, fluorescence intensity, high mannose 6-phosphate, primary screen (AID 1220)
T5 sequence (P34949 whole entry): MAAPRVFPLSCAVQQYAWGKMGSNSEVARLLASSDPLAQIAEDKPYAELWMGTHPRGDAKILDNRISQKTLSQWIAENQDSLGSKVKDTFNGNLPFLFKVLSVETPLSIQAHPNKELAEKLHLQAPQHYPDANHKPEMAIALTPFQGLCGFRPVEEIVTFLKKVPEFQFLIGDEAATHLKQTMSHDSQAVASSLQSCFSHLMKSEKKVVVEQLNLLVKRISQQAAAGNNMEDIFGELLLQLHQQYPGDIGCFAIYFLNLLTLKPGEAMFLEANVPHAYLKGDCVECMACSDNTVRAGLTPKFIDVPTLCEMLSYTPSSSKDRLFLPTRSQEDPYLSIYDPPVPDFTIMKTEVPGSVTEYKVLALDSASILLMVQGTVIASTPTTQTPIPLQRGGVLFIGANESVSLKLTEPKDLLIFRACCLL

Cytochrome P450 3A4 = Cytochrome P450 3A4 (Homo sapiens, UniProt P08684);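 further: CYP3A4 tested as one member of a cytochrome P450 panel screen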
Cytochrome P450 2D6 = Cytochrome P450 2D6 (Homo sapiens, UniProt P10635);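 further: CYP2D6 member of a cytochrome P450 panel assay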
Protein Wnt-3a = Protein Wnt-3a (Mus musculus, UniProt P27467); experiment: antagonism of Wnt3a pathway luciferase reporter – Wnt-LIGHT cells, luminescence, selectivity assay for Gli-SUFU antagonist project, dose response (AID 651570); assay type: functional; details: read-out: IC50_Mean;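 further: Wnt-LIGHT reporter cells stimulated with conditioned medium from Wnt3a-producing cells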
[16] = reduction of Shn3 3'UTR-driven luciferase in osteoblasts – cell-based, Clone20 osteoblasts, firefly luciferase, cherry-picked, dose response (AID 624132); assay type: functional;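 further: firefly luciferase luminescence from reporter carrying the Shn3 3'UTR in osteoblasts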
INS1 = experiment: INS-1E survival protection against cytokine death – cell-based, luminescence, retest, dose response (AID 449756); assay type: functional; details: Rattus norvegicus;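 further: cell death triggered by IL-1 beta plus TNF-alpha plus IFN-gamma mixture; protective hits raise ATP signal compared with cytokine alone wells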
[17] = loss of viability in HepG2 cells – cell-based, CellTiter-Glo, cherry-picked, cytotoxicity control for Shn3 inhibitor project, dose response (AID 624134); assay type: functional
[18] = molecular target: Eukaryotic translation initiation factor 4E (Mus musculus, UniProt P63073); experiment: blockers of eIF4G binding by eIF4E – biochemical, TR-FRET, dose response (AID 855); assay type: functional;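 further: potency for disrupting eIF4E binding to eIF4GI seen as loss of FRET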
[19] = intracellular Trypanosoma cruzi inhibitors in host cells – cell-based, plate reader, cherry-pick samples, set 3, dose response (AID 651818); assay type: functional;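 further: compounds incubated with infected cells for about four days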
[20] = Dd2 parasite growth inhibition in erythrocytes – SYBR Green, dry powder samples, set 9, dose response (AID 1159568); assay type: functional, cell-based
[21] = Fluorescence-based cell-based high throughput dose response assay for inhibitors of the interaction of nucleotide-binding oligomerization domain containing 2 (NOD2) and the receptor-interacting serine-threonine kinase 2 (RIPK2).; assay type: functional; details: Homo sapiens
[22] = activation of miR-122 Renilla sensor silencing – cell-based, Huh7 psiCHECK-miR122, Renilla luciferase, cherry-picked, dose response (AID 651956); assay type: functional;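 further: huh7 hepatoma cells stably carrying a psiCHECK-2 miR-122 sensor plasmid; renilla luciferase signal reporting endogenous miR-122 activity after 48 h compound exposure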

Disintegrin and metalloproteinase domain-containing protein 17, sequence (P78536 whole entry, the tested form may be a part): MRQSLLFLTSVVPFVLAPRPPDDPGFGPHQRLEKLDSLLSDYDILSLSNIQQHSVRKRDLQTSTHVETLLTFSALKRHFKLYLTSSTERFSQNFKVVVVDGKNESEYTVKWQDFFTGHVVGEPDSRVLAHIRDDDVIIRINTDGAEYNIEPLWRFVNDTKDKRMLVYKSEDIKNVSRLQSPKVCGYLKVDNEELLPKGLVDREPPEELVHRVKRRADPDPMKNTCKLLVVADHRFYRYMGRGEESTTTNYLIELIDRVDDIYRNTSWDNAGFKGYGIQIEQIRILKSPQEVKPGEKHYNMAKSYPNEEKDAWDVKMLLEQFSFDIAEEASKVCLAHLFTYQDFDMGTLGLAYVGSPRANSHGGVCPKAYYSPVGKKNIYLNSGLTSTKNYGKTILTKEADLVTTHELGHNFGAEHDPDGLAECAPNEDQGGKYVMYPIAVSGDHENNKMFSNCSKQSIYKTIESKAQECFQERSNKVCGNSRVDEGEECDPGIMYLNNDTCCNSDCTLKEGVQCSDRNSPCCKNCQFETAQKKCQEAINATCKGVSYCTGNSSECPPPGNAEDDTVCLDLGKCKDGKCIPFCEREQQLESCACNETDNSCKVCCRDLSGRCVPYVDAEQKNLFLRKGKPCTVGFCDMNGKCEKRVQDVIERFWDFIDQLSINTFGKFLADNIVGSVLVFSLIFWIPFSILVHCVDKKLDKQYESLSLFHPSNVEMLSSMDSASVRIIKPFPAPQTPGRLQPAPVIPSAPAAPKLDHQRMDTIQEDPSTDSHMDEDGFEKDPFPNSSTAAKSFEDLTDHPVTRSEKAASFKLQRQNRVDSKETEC
Protein Wnt-3a, sequence (P27467 whole entry): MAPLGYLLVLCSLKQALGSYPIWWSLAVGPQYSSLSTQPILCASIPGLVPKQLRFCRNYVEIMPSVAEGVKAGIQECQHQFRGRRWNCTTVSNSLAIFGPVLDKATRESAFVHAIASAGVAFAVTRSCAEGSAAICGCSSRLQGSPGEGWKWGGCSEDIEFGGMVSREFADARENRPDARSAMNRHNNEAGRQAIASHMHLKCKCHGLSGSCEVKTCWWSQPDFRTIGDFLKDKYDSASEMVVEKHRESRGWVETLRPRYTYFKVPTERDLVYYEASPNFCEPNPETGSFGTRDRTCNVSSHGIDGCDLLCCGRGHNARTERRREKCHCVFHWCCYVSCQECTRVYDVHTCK
Cytochrome P450 2D6, sequence (P10635 whole entry): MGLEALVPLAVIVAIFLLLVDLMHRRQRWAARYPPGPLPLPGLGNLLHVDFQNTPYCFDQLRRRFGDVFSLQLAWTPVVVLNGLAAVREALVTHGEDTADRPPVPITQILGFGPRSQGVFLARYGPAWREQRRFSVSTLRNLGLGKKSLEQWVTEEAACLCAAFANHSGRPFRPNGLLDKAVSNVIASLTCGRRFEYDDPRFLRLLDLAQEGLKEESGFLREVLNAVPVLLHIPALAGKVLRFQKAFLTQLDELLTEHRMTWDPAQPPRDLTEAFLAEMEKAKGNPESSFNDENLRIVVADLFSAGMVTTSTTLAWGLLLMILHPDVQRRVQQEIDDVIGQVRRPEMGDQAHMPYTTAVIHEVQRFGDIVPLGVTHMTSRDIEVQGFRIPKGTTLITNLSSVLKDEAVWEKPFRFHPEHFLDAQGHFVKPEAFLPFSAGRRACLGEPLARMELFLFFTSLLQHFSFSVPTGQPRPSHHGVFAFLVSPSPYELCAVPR
Eukaryotic translation initiation factor 4E, sequence (P63073 whole entry): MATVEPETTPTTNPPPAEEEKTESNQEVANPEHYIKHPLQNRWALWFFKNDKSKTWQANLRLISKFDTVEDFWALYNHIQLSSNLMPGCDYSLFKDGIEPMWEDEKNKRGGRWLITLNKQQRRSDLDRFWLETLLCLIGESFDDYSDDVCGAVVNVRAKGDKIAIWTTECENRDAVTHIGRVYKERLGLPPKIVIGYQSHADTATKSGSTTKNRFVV
Cytochrome P450 3A4, sequence (P08684 whole entry): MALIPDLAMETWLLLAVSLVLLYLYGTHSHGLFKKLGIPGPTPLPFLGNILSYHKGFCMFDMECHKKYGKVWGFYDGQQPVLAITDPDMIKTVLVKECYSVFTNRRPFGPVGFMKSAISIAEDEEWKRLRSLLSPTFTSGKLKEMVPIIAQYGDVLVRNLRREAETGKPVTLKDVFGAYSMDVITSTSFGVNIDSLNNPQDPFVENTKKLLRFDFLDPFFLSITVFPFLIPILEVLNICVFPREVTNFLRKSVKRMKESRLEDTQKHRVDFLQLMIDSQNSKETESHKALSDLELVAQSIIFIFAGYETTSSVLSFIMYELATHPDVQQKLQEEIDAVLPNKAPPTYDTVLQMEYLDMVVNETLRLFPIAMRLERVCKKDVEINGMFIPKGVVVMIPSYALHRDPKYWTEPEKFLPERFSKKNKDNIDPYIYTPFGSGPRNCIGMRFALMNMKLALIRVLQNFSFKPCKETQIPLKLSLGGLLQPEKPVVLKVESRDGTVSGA

IC50 [1]: 14.9 µM (inactive)
SMILES: CC(C)(C)c1ccc(-c2cc(-c3ccccc3O)[nH]n2)cc1

SMILES: Cc1cc(C)c(S(=O)(=O)N2CCN=C2c2ccccc2)cc1C
AC50 [2]: 7.73 µM (active)
AC50 [3]: 7.94 µM (active)
AC50 [4]: 10.1 µM (active)
AC50 [5]: 5.08 µM (active)

IC50 [6]: 15.5 µM (active)
IC50 [7]: > 50 µM (not active)
IC50 [8]: 13.4 µM (active)
SMILES: COc1ccc(/N=c2\[nH]c(=O)c3cc([N+](=O)[O-])ccc3s2)cc1

AC50 [9]: 32.4 µM (active)
IC50 [6]: 37.2 µM (inactive)
IC50 [8]: 17 µM (active)
SMILES: c1ccc(-c2nc(NCCCN3CCOCC3)c3ccccc3n2)cc1

SMILES: CCc1ccc2oc(-c3ccc(N)cc3)nc2c1
AC50 [10]: 4.19 µM (active)
AC50 [11]: > 52 µM (inactive)
IC50 (Protein skinhead-1): 46.2 µM (active)
AC50 [12]: > 52 µM (inactive)
AC50 [13]: 7.42 µM (active)

IC50 [1]: 8.72 µM (active)
SMILES: C=C(C)COc1ccc(-c2[nH]nc(C)c2Oc2ccccc2OC)c(O)c1

IC50 [14]: > 69.5 µM (inactive)
SMILES: C=C(C)COc1ccc(-c2n[nH]c(C)c2Oc2ccccc2OC)c(O)c1

IC50 [15]: > 50 µM (not active)
AC50 (Cytochrome P450 3A4): 3.16 µM (inconclusive)
AC50 (Cytochrome P450 2D6): 14.1 µM (inconclusive)
SMILES: O=[N+]([O-])c1ccc2c(c1NC1CCCCC1)=NC1(CCCCC1)[N+]=2[O-]

SMILES: COc1ccc(NS(=O)(=O)c2cccc(NC(=O)c3ccc(S(=O)(=O)N4CCCCCC4)cc3)c2)cc1
IC50 (Protein Wnt-3a): 1.76 µM (active)
AC50 [16]: 0.829 µM (active)
AC50 (INS1): 3.12 µM (active)
AC50 [17]: 38.8 µM (active)

AC50 [9]: 8.41 µM (active)
SMILES: CN1CCN(c2nc(-c3ccncc3)nc3ccccc23)CC1

IC50 [15]: > 50 µM (not active)
SMILES: Cc1ccccc1NC(=S)Nc1cccc2cnccc12

SMILES: CC[C@@]12C(=O)N(c3cccc(F)c3)C(=O)N1[C@H](c1ccc(Cl)cc1)[C@@H]1C(=O)N(C3CCCCC3)C(=O)[C@@H]12
AC50 [2]: < 0.26 µM (active)
AC50 [3]: 0.329 µM (active)
AC50 [4]: 0.416 µM (active)
AC50 [5]: < 0.26 µM (active)

SMILES: C[C@@]12C(=O)N(c3cccc(Cl)c3)C(=O)N1[C@H](c1ccc(Cl)cc1)[C@@H]1C(=O)N(C3CCCCC3)C(=O)[C@@H]12
AC50 [2]: 1.31 µM (active)
AC50 [3]: 11.6 µM (active)
AC50 [4]: 2.26 µM (active)
AC50 [5]: 1.21 µM (active)

IC50 [18]: 50 µM (inactive)
IC50 [6]: > 80 µM (inactive)
IC50 [8]: 6.62 µM (active)
SMILES: COc1ccc(-c2cnnc(N/N=C/c3ccc(-c4ccc([N+](=O)[O-])cc4)o3)n2)cc1

SMILES: C[C@H](CO)N1C[C@H](C)[C@H](CN(C)C(=O)Nc2ccc(C(F)(F)F)cc2)Oc2c(NC(=O)c3ccc(-c4nccs4)cc3)cccc2C1=O
AC50 [19]: 4.22 µM (active)
AC50 [20]: 5 µM (active)

SMILES: CCOC(=O)[C@]12Cc3cc(OC)ccc3[C@H]1N(C1CCCCC1)C(=O)c1cc(OC)ccc12
IC50 [21]: 4.81 µM (active)

SMILES: C[C@H](CO)N1C[C@H](C)[C@H](CN(C)C(=O)NC2CCCCC2)Oc2ncc(-c3cccc(C(F)(F)F)c3)cc2C1=O
AC50 [22]: 37.8 µM (active)

SMILES: CN(C)c1ccc(-c2nc3cc(N)ccc3o2)cc1
AC50 [10]: 3.58 µM (active)
AC50 [12]: > 52 µM (inactive)
AC50 [13]: 2.28 µM (active)

SMILES: N#Cc1cccc(-c2ccc([C@@H]3[C@@H]4CN(C(=O)c5ccccn5)C[C@H]3N4)cc2)c1
AC50 [10]: 13.2 µM (active)
AC50 [11]: 15 µM (active)
AC50 [12]: > 52 µM (inactive)
AC50 [13]: 11.1 µM (active)

IC50 [14]: > 69.5 µM (inactive)
IC50 [1]: > 69.5 µM (inactive)
SMILES: O=C(N/N=C/c1cn(-c2cccs2)nc1-c1ccccc1)c1ccccc1Cl

SMILES: CC(C)[C@H]1COCn2nncc2CCCC(=O)N1
AC50 [20]: > 39 µM (inactive)
